Paper PMC3234597, “Two Panels of Steroid Receptor Luciferase Reporter Cell Lines for Compound Profiling” (Combinatorial Chemistry & High Throughput Screening, 2011)
Like-named read-outs stand apart in the source and are kept apart here.

Experiments:
Type in all cases: cell-based
[1] = biological target: T1, human MR (full-length) (Homo sapiens, UniProt P08235); experiment: U2OS-MR/MMTV luciferase reporter cell line (full-length receptor); details: for Log EC50: agonist mode, 20 h, log10 of molar EC50, mean ± SEM; for Log EC50 / Log IC50: MR/MMTV; for Log IC50: in the presence of 1 nM aldosterone, log10 of molar IC50, mean ± SEM
T1 construct: expression vectors encoding full-length steroid receptors: pcDNA3-hAR, pcDNA3-hGR and pcDNA3-hMR; expressed in transfected cells; host or cells: U2OS
T1 sequence (P08235 1-984): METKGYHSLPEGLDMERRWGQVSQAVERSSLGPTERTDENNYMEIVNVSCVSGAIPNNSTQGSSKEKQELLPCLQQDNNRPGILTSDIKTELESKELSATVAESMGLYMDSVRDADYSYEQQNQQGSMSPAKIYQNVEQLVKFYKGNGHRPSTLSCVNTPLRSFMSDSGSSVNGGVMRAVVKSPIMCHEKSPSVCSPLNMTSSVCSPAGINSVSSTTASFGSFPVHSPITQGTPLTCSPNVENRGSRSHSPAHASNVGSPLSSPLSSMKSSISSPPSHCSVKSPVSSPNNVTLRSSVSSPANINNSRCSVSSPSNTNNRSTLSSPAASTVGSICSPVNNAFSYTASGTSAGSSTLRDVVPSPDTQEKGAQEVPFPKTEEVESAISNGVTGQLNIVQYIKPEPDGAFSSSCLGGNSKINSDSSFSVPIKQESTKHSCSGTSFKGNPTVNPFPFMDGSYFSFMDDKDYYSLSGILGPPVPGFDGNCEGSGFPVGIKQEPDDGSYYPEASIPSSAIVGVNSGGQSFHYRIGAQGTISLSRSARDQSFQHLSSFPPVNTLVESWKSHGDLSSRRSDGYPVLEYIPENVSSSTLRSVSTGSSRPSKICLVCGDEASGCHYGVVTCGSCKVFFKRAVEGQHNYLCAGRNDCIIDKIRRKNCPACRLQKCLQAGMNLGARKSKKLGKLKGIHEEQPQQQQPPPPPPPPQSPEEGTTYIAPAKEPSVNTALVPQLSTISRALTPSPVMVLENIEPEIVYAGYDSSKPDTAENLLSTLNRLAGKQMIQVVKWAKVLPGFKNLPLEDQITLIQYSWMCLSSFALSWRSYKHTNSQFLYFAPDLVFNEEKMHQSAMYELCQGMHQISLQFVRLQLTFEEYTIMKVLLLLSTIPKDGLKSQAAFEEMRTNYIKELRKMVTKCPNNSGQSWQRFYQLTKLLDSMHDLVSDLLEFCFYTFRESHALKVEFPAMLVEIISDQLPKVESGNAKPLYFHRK

[2] = biological target: T2, human ERα (full-length) (Homo sapiens, UniProt P03372, G400V); experiment: U2OS-ERα/3xERE luciferase reporter cell line (full-length receptor); details: for luciferase activity in ERα reporter cell lines: even at 10 μM concentration
T2 sequence (P03372 1-595 G400V): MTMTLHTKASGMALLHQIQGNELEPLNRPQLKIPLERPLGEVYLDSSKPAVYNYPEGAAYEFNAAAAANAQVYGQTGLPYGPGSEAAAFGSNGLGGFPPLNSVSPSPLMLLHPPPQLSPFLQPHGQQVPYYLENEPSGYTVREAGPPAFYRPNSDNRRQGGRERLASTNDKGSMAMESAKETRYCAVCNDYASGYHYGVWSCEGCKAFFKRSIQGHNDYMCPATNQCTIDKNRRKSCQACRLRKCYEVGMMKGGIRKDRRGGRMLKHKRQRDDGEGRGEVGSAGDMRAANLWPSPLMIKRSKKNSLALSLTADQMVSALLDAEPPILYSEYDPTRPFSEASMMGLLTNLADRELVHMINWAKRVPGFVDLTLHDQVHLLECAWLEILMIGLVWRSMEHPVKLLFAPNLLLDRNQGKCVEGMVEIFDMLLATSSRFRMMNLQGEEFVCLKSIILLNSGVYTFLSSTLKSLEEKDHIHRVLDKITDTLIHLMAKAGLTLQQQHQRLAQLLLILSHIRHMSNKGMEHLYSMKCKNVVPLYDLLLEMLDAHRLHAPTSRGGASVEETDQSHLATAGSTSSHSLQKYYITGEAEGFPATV

[3] = biological target: T3, human GR (full-length) (Homo sapiens, UniProt P04150); experiment: U2OS-GR/3xGRE luciferase reporter cell line (full-length receptor); details: for Log EC50: agonist mode, 20 h, log10 of molar EC50, mean ± SEM; for Log EC50 / Log IC50: GR/3xGRE; for Log IC50: antagonist mode, in the presence of 5 nM dexamethasone, log10 of molar IC50, mean ± SEM
T3 construct: expression vectors encoding full-length steroid receptors: pcDNA3-hAR and pcDNA3-hGR; host or cells: U2OS
T3 sequence (P04150 1-777): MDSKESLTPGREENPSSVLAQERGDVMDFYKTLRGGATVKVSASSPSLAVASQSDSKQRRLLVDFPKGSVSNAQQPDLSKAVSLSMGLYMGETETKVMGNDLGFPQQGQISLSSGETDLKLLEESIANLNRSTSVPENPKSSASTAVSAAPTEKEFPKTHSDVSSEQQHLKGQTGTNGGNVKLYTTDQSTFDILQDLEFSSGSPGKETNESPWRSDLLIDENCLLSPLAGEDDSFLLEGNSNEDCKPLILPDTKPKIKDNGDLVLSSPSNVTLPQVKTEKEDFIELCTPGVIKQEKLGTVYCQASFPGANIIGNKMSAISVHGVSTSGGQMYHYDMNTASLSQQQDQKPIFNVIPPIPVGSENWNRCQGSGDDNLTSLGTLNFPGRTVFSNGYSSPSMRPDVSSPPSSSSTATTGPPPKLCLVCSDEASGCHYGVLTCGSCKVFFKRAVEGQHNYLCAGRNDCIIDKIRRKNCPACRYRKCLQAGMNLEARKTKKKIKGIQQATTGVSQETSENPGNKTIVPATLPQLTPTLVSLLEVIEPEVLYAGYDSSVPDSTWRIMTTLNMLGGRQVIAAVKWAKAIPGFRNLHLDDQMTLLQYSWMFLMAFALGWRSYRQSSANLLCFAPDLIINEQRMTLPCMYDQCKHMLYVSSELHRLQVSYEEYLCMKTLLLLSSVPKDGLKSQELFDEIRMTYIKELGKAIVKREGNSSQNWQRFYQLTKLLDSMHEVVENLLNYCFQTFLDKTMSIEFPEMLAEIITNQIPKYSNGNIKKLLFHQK

[4] = biological target: T4, GR-LBD fused to Gal4-DBD (Homo sapiens, UniProt P04150); experiment: U2OS-GR-LBD/9xGal4UAS luciferase reporter cell line; details: for Log EC50: agonist mode, 20 h, log10 of molar EC50, mean ± SEM; for Log EC50 / Log IC50: GR-LBD/9xGal4UAS; for Log IC50: antagonist mode, in the presence of 5 nM dexamethasone, log10 of molar IC50, mean ± SEM
T4 construct: expressed in transfected cells; host or cells: U2OS
T4 sequence (P04150 524-758 limits assumed): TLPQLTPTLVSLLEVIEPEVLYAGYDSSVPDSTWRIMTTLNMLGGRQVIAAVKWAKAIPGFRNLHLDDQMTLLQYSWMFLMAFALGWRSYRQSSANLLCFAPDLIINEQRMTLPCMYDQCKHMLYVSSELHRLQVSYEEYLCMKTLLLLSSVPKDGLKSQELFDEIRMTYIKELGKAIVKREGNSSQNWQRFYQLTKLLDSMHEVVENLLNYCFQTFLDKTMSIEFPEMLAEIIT

| Structure (SMILES) | EC50 ([1]; read-out: Log EC50 (converted)) | EC50 [2] | EC50 ([3]; read-out: Log EC50 (converted)) | EC50 ([4]; read-out: Log EC50 (converted)) | Log EC50 [1] | Log IC50 ([1]; antagonist mode) | further results |
| --- | --- | --- | --- | --- | --- | --- | --- |
| C[C@]12C[C@H](O)[C@H]3[C@@H](CCC4=CC(=O)CC[C@@]43C)[C@@H]1CC[C@@H]2C(=O)CO [Corticosterone, corticosterone] | 8.13e-05 µM | > 10 µM | 0.00589 µM | 0.269 µM | – | – | – |
| C[C@]12CCC(=O)C=C1CC[C@@H]1[C@@H]2[C@@H](O)C[C@]2(C=O)[C@@H](C(=O)CO)CC[C@@H]12 [Aldosterone, aldosterone] | – | > 10 µM | 0.0302 µM | 1.15 µM | – | – | – |
| C[C@]12CC[C@@H]3c4ccc(O)cc4C[C@@H](CCCCCCCCC[S+]([O-])CCCC(F)(F)C(F)(F)F)[C@H]3[C@@H]1CC[C@@H]2O (stereo partly drawn) [ICI 182.780] | – | – | – | – | > -5.00 M | > -5.00 M | Log EC50 [3]: > -5.00 M; Log IC50 [3]: > -5.00 M; Log EC50 [4]: > -5.00 M; Log IC50 [4]: > -5.00 M |
| C[C@H]1C[C@H]2[C@@H]3CCC4=CC(=O)C=C[C@]4(C)[C@@]3(Cl)[C@@H](O)C[C@]2(C)[C@@]1(O)C(=O)CO [Beclomethasone, beclomethasone] | – | – | – | – | -7.97 ± 0.12 M | > -5.00 M | activity profile in words ([1]; full-length MR format, antagonist mode): no sign of antagonistic activity; luciferase activity in ERα reporter cell lines [2]: did not find any sign of luciferase activity; Log EC50 ([2]; agonist mode, ERα/3xERE, 20 h, value is log10 of molar EC50, mean ± SEM): > -5.00 M; Log IC50 ([2]; antagonist mode, ERα/3xERE, in the presence of 1 nM E2, log10 of molar IC50, mean ± SEM): > -5.00 M |
| C#C[C@]1(O)CC[C@H]2[C@@H]3CCC4=Cc5oncc5C[C@]4(C)[C@H]3CC[C@@]21C [Danazol, danazol] | > 10 µM | 4.37 µM | > 10 µM | > 10 µM | – | – | – |
| C[C@]12C=CC(=O)C=C1CC[C@H]1[C@@H]3C[C@@H](O)[C@](O)(C(=O)CO)[C@@]3(C)C[C@H](O)[C@@]12F [Triamcinolone, triamcinolone] | 0.186 µM | > 10 µM | 0.00468 µM | 0.0102 µM | – | – | luciferase activity in ERα reporter cell lines [2]: did not find any sign of luciferase activity |
| CCC(=O)[C@@]1(C)CC[C@H]2[C@@H]3CCC4=CC(=O)CCC4=C3CC[C@@]21C [Promegestone (R5020), promegestone] | > 10 µM | > 10 µM | > 3.16 µM | > 10 µM | – | – | – |
| CCCc1c(-c2ccc(O)cc2)nn(-c2ccc(O)cc2)c1-c1ccc(O)cc1 [PPT, propyl pyrazole triol] | > 10 µM | 0.0017 µM | > 10 µM | > 10 µM | – | – | – |
| CC[C@@H]1Cc2cc(O)ccc2C2=C1c1ccc(O)cc1C[C@H]2CC (relative stereo) [R.R-THC, (R,R)-cis-diethyltetrahydro-2,8-chrysenediol] | – | – | – | – | > -5.40 M | -5.45 ± 0.22 M | Log EC50 [3]: > -5.00 M; Log IC50 [3]: > -5.00 M; Log EC50 [4]: > -5.00 M; Log IC50 [4]: > -5.00 M |
| O=c1c(-c2ccc(O)cc2)coc2cc(O)cc(O)c12 [Genistein, genistein] | – | – | – | – | – | – | EC50 [1]: > 10 µM; EC50 [3]: > 10 µM; EC50 [4]: > 10 µM |
